pKi: −log10 of the molar value. Like-named read-outs stand apart in the source and are kept apart here.
Experiments:
[1] = target: T1, human adenosine A2A receptor (Homo sapiens, UniProt P29274); assay: Inhibition binding assay, human adenosine A2A receptor membranes, [3H]ZM241385; conditions: 1 nM [3H]ZM241385, HEK293-hA2A membranes, 25° C., 1 h, IC50 converted to Ki with Cheng-Prusoff; for Ki: read-out: A2A pKi (converted)
T1 construct: expressed in transfected cells; host or cells: HEK293 cells infected with BacMam
Method in brief: (§1)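 Membranes from BacMam-infected HEK293 cells (0.2 μg A2A, 1.4 μg A1) incubated 1 h at 25° C with test compound and 1 nM [3H]ZM241385 (A2A; 50 mM Tris-HCl pH 7.4) or [3H]DPCPX (A1; plus 100 mM NaCl, 10 mM MgCl2). Nonspecific: 1 μM CGS15943 or DPCPX. Filtration, scintillation; IC50 converted to Ki via Cheng-Prusoff.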

[2] = target: T2, human adenosine A1 receptor (Homo sapiens, UniProt P30542); assay: Inhibition binding assay, human adenosine A1 receptor membranes, [3H]DPCPX; conditions: 1 nM [3H]DPCPX, 25° C., 1 h; IC50 converted to Ki with Cheng-Prusoff; read-out: A1 pKi (converted)
T2 construct: expressed in transfected cells; host or cells: HEK293 cells infected with BacMam (the same paragraph also labels the preparation CHO-hA1)
T2 sequence (P30542 1-326): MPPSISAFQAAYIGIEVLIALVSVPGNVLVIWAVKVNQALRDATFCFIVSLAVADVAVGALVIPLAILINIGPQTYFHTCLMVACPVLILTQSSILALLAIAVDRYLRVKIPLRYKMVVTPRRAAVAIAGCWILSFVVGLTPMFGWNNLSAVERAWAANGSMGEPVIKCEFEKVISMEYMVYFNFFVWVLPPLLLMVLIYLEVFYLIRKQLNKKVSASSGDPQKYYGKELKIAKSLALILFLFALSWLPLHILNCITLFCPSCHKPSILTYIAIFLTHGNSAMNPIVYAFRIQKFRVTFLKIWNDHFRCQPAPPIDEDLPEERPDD
Method in brief: as §1

T1 sequence (P29274 whole entry): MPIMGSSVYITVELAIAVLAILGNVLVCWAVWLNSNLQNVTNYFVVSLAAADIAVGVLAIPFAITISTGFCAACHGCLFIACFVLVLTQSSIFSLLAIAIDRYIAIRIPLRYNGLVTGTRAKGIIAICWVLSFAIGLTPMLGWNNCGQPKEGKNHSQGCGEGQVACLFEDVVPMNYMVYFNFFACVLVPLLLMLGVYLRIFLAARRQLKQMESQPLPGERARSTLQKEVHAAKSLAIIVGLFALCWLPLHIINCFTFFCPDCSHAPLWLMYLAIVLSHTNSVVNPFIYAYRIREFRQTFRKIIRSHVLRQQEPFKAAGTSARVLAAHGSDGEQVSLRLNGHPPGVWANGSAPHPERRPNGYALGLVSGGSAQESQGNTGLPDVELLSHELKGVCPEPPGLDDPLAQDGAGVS

| Compound | Ki [1] [nM] | Ki [2] [nM] | pKi ([1]; A2A pKi) |
| --- | --- | --- | --- |
| Cc1cc(-c2c(-c3ccccc3)nc(N)n3c(=O)n(C[C@@H]4COCCN4)nc23)cc(C)n1 [Example 2-79, (R)-5-amino-8-(2,6-dimethylpyridin-4-yl)-2-(morpholin-3-ylmethyl)-7-phenyl-[1,2,4]triazolo[4,3-c]pyrimidin-3(2H)-one] | 15.8 | 794 |  |
| Cc1cc(-c2c(-c3ccccc3)nc(N)n3c(=O)n(CC4CCCOC4)nc23)cc(C)n1 (centres unmarked) [Example 2-81, 5-amino-8-(2,6-dimethyl-4-pyridyl)-7-phenyl-2-(tetrahydropyran-3-ylmethyl)-[1,2,4]triazolo[4,3-c]pyrimidin-3-one] | 0.501 | 316 |  |
| Cc1cc(-c2c(-c3ccccc3)nc(N)n3c(=O)n(CC4CCCCO4)nc23)cc(C)n1 (centres unmarked) [Example 2-82, 5-amino-8-(2,6-dimethyl-4-pyridyl)-7-phenyl-2-(tetrahydropyran-2-ylmethyl)-[1,2,4]triazolo[4,3-c]pyrimidin-3-one] | 0.316 | 251 |  |
| Cc1cc(-c2c(-c3ccccc3)nc(N)n3c(=O)n(CCN4CCOCC4)nc23)cc(C)n1 [Example 2-99, 5-amino-8-(2,6-dimethyl-4-pyridyl)-2-(2-morpholinoethyl)-7-phenyl-[1,2,4]triazolo[4,3-c]pyrimidin-3-one] | 31.6 | 794 |  |
| Cc1cc(-c2c(-c3ccccc3)nc(N)n3c(=O)n(CCN4C[C@@H](C)O[C@@H](C)C4)nc23)cc(C)n1 [Example 2-100, 5-amino-2-[2-((ds)-2,6-dimethylmorpholin-4-yl)ethyl]-8-(2,6-dimethyl-4-pyridyl)-7-phenyl-[1,2,4]triazolo[4,3-c]pyrimidin-3-one] | 316 | > 3160 |  |
| Cc1cc(-c2c(-c3ccccc3)nc(N)n3c(=O)n(CCN4CCC(F)(F)CC4)nc23)cc(C)n1 [Example 2-101, 5-amino-2-[2-(4,4-difluoro-1-piperidyl)ethyl]-8-(2,6-dimethyl-4-pyridyl)-7-phenyl-[1,2,4]triazolo[4,3-c]pyrimidin-3-one] | 15.8 | 631 |  |
| Cc1cc(-c2c(-c3ccccc3)nc(N)n3c(=O)n(CCN4C5CCCC4CC5)nc23)cc(C)n1 [Example 2-103, 5-amino-2-[2-(8-azabicyclo[3.2.1]octan-8-yl)ethyl]-8-(2,6-dimethyl-4-pyridyl)-7-phenyl-[1,2,4]triazolo[4,3-c]pyrimidin-3-one] |  | 1000 | 8.20 |
| Cc1cc(-c2c(-c3ccc(F)cc3)nc(N)n3c(=O)n(CCN4CCCCC4)nc23)cc(C)n1 [Example 2-104, 5-amino-8-(2,6-dimethyl-4-pyridyl)-7-(4-fluorophenyl)-2-[2-(1-piperidyl)ethyl]-[1,2,4]triazolo[4,3-c]pyrimidin-3-one] | 79.4 | > 3980 |  |
| Cc1cc(-c2c(-c3ccc(F)cc3)nc(N)n3c(=O)n(CCN4CCCCC4)nc23)cc(Cl)n1 [Example 2-105, 5-amino-8-(2-chloro-6-methyl-4-pyridyl)-7-(4-fluorophenyl)-2-[2-(1-piperidyl)ethyl]-[1,2,4]triazolo[4,3-c]pyrimidin-3-one] | 31.6 | > 2510 |  |
| Cc1cc(-c2c(-c3ccccc3)nc(N)n3c(=O)n(CCN(C)CC(=O)N4CCC(O)CC4)nc23)cc(C)n1 [Example 2-107, 5-amino-8-(2,6-dimethyl-4-pyridyl)-2-[2-[[2-(4-hydroxy-1-piperidyl)-2-oxo-ethyl]-methyl-amino]ethyl]-7-phenyl-[1,2,4]triazolo[4,3-c]pyrimidin-3-one] | 63.1 | > 3160 |  |
| Cc1cc(-c2c(-c3ccccc3)nc(N)n3c(=O)n(CCNC4CCCC(C(=O)NC5CC5)C4)nc23)cc(C)n1 (centres unmarked) [Example 2-108, 3-[2-[5-amino-8-(2,6-dimethyl-4-pyridyl)-3-oxo-7-phenyl-[1,2,4]triazolo[4,3-c]pyrimidin-2-yl]ethylamino]-N-cyclopropyl-cyclohexanecarboxamide] | 200 | > 3980 |  |
| Cc1cc(-c2c(-c3ccccc3)nc(N)n3c(=O)n(CCCN4CCCCC4)nc23)cc(C)n1 [Example 2-111, 5-amino-8-(2,6-dimethyl-4-pyridyl)-7-phenyl-2-[3-(1-piperidyl)propyl]-[1,2,4]triazolo[4,3-c]pyrimidin-3-one] | 398 | > 3980 |  |
| Cc1cc(-c2c(-c3ccccc3)nc(N)n3c(=O)n(CCCn4ccccc4=O)nc23)cc(C)n1 [Example 2-112, 5-amino-8-(2,6-dimethylpyridin-4-yl)-2-(3-(2-oxopyridin-1(2H)-yl)propyl)-7-phenyl-[1,2,4]triazolo[4,3-c]pyrimidin-3(2H)-one] | 3.16 | 200 |  |
| Cc1cc(-c2c(N3CCOCC3)nc(N)n3c(=O)n(CCC(F)(F)F)nc23)cc(C)n1 [Example 3-1, 5-amino-8-(2,6-dimethyl-4-pyridyl)-7-morpholino-2-(3,3,3-trifluoropropyl)-[1,2,4]triazolo[4,3-c]pyrimidin-3-one] | 316 | > 3160 |  |
| Cc1cc(-c2c(N3CCCCC3)nc(N)n3c(=O)n(CCC(F)(F)F)nc23)cc(C)n1 [Example 3-2, 5-amino-8-(2,6-dimethyl-4-pyridyl)-7-(1-piperidyl)-2-(3,3,3-trifluoropropyl)-[1,2,4]triazolo[4,3-c]pyrimidin-3-one] | 6.31 | > 3160 |  |
| CCOc1nc(N)n2c(=O)n(CCC(F)(F)F)nc2c1-c1cc(C)nc(C)c1 [Example 3-3, 5-amino-8-(2,6-dimethyl-4-pyridyl)-7-ethoxy-2-(3,3,3-trifluoropropyl)-[1,2,4]triazolo[4,3-c]pyrimidin-3-one] | 158 | > 3160 |  |

More lines, main results first:

| Ki [1] [nM] | Ki [2] [nM] | Compound | pKi ([1]; A2A pKi) |
| --- | --- | --- | --- |
| 3.16 | 398 | Cc1cc(-c2c(-c3ccccc3)nc(N)n3c(=O)n(C[C@H]4COCCN4C)nc23)cc(C)n1 [Example 2-77, 5-amino-8-(2,6-dimethyl-4-pyridyl)-2-[[(3S)-4-methylmorpholin-3-yl]methyl]-7-phenyl-[1,2,4]triazolo[4,3-c]pyrimidin-3-one] |  |
| 200 | > 3160 | Cc1cc(-c2c(-c3ccccc3)nc(N)n3c(=O)n(CC4CCN(C)CC4)nc23)cc(C)n1 [Example 2-78, 5-amino-8-(2,6-dimethyl-4-pyridyl)-2-[(1-methyl-4-piperidyl)methyl]-7-phenyl-[1,2,4]triazolo[4,3-c]pyrimidin-3-one] |  |
| 10 | 1000 | Cc1cc(-c2c(-c3ccccc3)nc(N)n3c(=O)n(C[C@@H]4CN(C(=O)OC(C)(C)C)CCN4C)nc23)cc(C)n1 [Example 2-83, tert-butyl (S)-3-((5-amino-8-(2,6-dimethylpyridin-4-yl)-3-oxo-7-phenyl-[1,2,4]triazolo[4,3-c]pyrimidin-2(3H)-yl)methyl)-4-methylpiperazine-1-carboxylate] |  |
| 6.31 | 316 | Cc1cc(-c2c(-c3ccccc3)nc(N)n3c(=O)n(C[C@H]4CN(C(=O)OC(C)(C)C)CCN4C)nc23)cc(C)n1 [Example 2-84, tert-butyl (R)-3-((5-amino-8-(2,6-dimethylpyridin-4-yl)-3-oxo-7-phenyl-[1,2,4]triazolo[4,3-c]pyrimidin-2(3H)-yl)methyl)-4-methylpiperazine-1-carboxylate] |  |
| 50.1 | 794 | Cc1cc(-c2c(-c3ccccc3)nc(N)n3c(=O)n(CC4CS(=O)(=O)C4)nc23)cc(C)n1 [Example 2-90, 5-amino-8-(2,6-dimethyl-4-pyridyl)-2-[(1,1-dioxothietan-3-yl)methyl]-7-phenyl-[1,2,4]triazolo[4,3-c]pyrimidin-3-one] |  |
| 25.1 | > 2510 | Cc1cc(-c2c(-c3ccccc3)nc(N)n3c(=O)n(CCN4CCC4)nc23)cc(C)n1 [Example 2-94, 5-amino-2-[2-(azetidin-1-yl)ethyl]-8-(2,6-dimethyl-4-pyridyl)-7-phenyl-[1,2,4]triazolo[4,3-c]pyrimidin-3-one] |  |
| 6.31 | 631 | Cc1cc(-c2c(-c3ccccc3)nc(N)n3c(=O)n(CCC4CCN(C)CC4)nc23)cc(C)n1 [Example 2-97, 5-amino-8-(2,6-dimethyl-4-pyridyl)-2-[2-(1-methyl-4-piperidyl)ethyl]-7-phenyl-[1,2,4]triazolo[4,3-c]pyrimidin-3-one] |  |
| 126 | > 3160 | Cc1cc(-c2c(-c3ccccc3)nc(N)n3c(=O)n(CCN4CCN(C)CC4)nc23)cc(C)n1 [Example 2-102, 5-amino-8-(2,6-dimethyl-4-pyridyl)-2-[2-(4-methylpiperazin-1-yl)ethyl]-7-phenyl-[1,2,4]triazolo[4,3-c]pyrimidin-3-one] |  |
| 20 | 398 | COC(=O)CCN1CCC(CCn2nc3c(-c4cc(C)nc(C)c4)c(-c4ccccc4)nc(N)n3c2=O)CC1 [Example 2-109, methyl 3-[4-[2-[5-amino-8-(2,6-dimethyl-4-pyridyl)-3-oxo-7-phenyl-[1,2,4]triazolo[4,3-c]pyrimidin-2-yl]ethyl]-1-piperidyl]propanoate] |  |

Source: patent US12528815B2, “5-amino-8-(4-pyridyl)-[1,2,4]triazolo[4,3-c]pyrimidin-3-one compounds for use against cancer” (Nxera Pharma UK Limited, priority 2020, dated 2026)
